Results as given in patent US20110288103A1, “COMPOUNDS, COMPOSITIONS, AND METHODS COMPRISING 1,3,4-OXADIAZOLE DERIVATIVES” (Institute for OneWorld Health, priority 2010, published 2011).
“And” between values parts separate entries of the source, which are not always exact repeats. Equal values may be shown once. “Also recorded” adds a separate entry of the source.

What was measured:
[1] = tested on: intestinal loops injected with cholera toxin (CTX); set-up: species or system mice (CD1 strain); conditions: mouse, in vivo
[2] = tested on: calcium-activated chloride channels (CaCC); test: Whole cell patch clamp recording of CaCC-mediated Cl- currents in JME/CF15 cells; assay type: cell-based
Procedure: Effect on calcium-activated chloride channels (CaCC) was investigated in JME/CF15 cells (see Jefferson et al. “Expression of normal and cystic fibrosis phenotypes by continuous airway epithelial cell lines” Am J. Physiol. (1990) December; 259 (6 Pt 1): L496-505). […] Test compound was Compound 10 ('915/2 in FIGS. 1 and 2) and positive control for CaCC was flufenamic acid (FFA).
JME/CF15 cells were prepared for whole cell patch clamp recordings following standard protocols (as described in Fischer et al. “Basolateral Cl channels in primary airway epithelial cultures” Am J Physiol Lung Cell Mol Physiol. (2007) 292:L1432-L1443, which is incorporated herein by reference in its entirety) while incubated in a bath solution as follows (mM): 140 HCl, 158 N-methyl-D-glucamine (NMDG), 2 CaCl2, 1 MgCl2, 12.5 Hepes, 10 glucose, pH 7.4. To selectively activate calcium-activated chloride channels (CaCC), the pipette solution consisted of (in mM) HCl, 160 N-methyl-D-glucamine (NMDG), 1 MgCl2, 5 Hepes, 1 glucose, 5 MgATP, pH 7.4.
(§1) Conventional whole cell patch clamp recordings were made. Effects of compounds were tested in 2 runs at 1 and 10 μM, respectively, on CaCC. To activate CaCC mediated Cl^− conductances, the pipette solution contained 500 nM CaCl2 without EGTA (in order to allow for agonist induced regulation of CaCC) or a mixture of 1.8 mM CaCl2 and 2 mM EGTA resulting in a free concentration of calcium of 500 nM to maintain a stable intracellular calcium concentration.
(§2) CaCC-mediated Cl^− currents were measured with a pipette solution that contained ˜500 nM free Ca to activate CaCC. […] This is likely a Ca-activated K^+ conductance because i) it generates a large outward current (which rules out a Cl^− conductance), and ii) it is transient (likely because intracellular K^+ is exhausted).

[3] = tested on: Ca-activated K+ conductance; test: Whole cell patch clamp in JME/CF15 cells: additional (K+) conductance; assay type: cell-based
Procedure: as §1, §2
The experimental conditions were not set up to measure a K^+ conductance, i.e., there is no K^+ in the employed solutions, and the measured currents are dependent on the residual K^+ found in cells. […] In an epithelial setting, concurrent block of CaCC and a K^+ conductance may result in weaker blocker efficiency or even in stimulation of secretion.

SMILES	% Inhibition [1]	Inhibition of CTX-induced fluid secretion (statistical significance) [1]	Block of CaCC-mediated Cl- currents ([2]; intracellular calcium stably buffered (with EGTA), ~500 nM free Ca, compound added to bath, runs at 1 and 10 μM, FIG. 1)	Block of CaCC-mediated (remaining) chloride current ([2]; intracellular calcium unbuffered (low EGTA), ~500 nM free Ca, 10 μM, FIG. 2)	Activation of a K+ conductance ([3]; Ca-buffered solutions)	Activation of an additional conductance (likely Ca-activated K+ conductance) ([3]; intracellular calcium unbuffered (low EGTA), 10 μM, FIG. 2)	Mean net fluid secretion (loop weight/loop length) [1]	Block of remaining chloride current after compound 10 ([2]; intracellular calcium unbuffered, 100 μM FFA added after compound 10, FIG. 2)
O=C(NCc1ccc(Oc2ccccc2)cc1)c1nc(-c2cc(Br)c(O)c(Br)c2)no1 [BF000710032, 3-(3,5-dibromo-4-hydroxyphenyl)-N-(4-phenoxybenzyl)-1,2,4-oxadiazole-5-carboxamide, reference compound]	62.69%^ψ	statistically significant inhibition						
CN(Cc1ccc(Cl)c(Cl)c1)C(=O)c1nnc(-c2cccc(NS(=O)(=O)C(F)(F)F)c2)o1 [Compound 10, N-(3,4-dichlorobenzyl)-N-methyl-5-(3-(trifluoromethylsulfonamido)phenyl)-1,3,4-oxadiazole-2-carboxamide]		statistically significant inhibition	blocking; also recorded: blocked currents	blocking; also recorded: eventually well blocked	not in Ca-buffered	transiently activated an additional conductance; also recorded: activation of a Ca-activated K^+ conductance	0.04996 g/cm and 0.04015 g/cm and 0.07645 g/cm	
O=C(O)c1ccccc1Nc1cccc(C(F)(F)F)c1 [FFA, flufenamic acid, reference compound]								blocks only slightly more
